From patent US4382958A, “Secondary amines and compositions for treatment of hypoglycaemia or obesity” (priority 1980, dated 1983)
Where two headings read alike, the source gives them in different places.

What was measured:
Female CFLP mice [1] = test: Effect on energy expenditure and food intake of mice; assay type: in vivo; settings: Mus musculus, % of mice dosed with water; for response vs control in vivo at 24.9 mg/kg: 24.9 mg/kg po; for response vs control in vivo at 20.2 mg/kg: 20.2 mg/kg po; for response vs control in vivo at 22.1 mg/kg: 22.1 mg/kg po; for response vs control in vivo at 20 mg/kg: 20.0 mg/kg po; for response vs control in vivo at 19.1 mg/kg: 19.1 mg/kg po; for response vs control in vivo at 23.3 mg/kg: 23.3 mg/kg po; for response vs control in vivo at 5.7 mg/kg: 5.7 mg/kg po; for response vs control in vivo at 22.9 mg/kg: 22.9 mg/kg po; for response vs control in vivo at 20.3 mg/kg: 20.3 mg/kg po
Protocol: Female CFLP mice each weighing approximately 24 g were given food and water ad lib before and during the experiment. The compounds were dissolved in water by addition of one mole of hydrochloric acid per mole of compound and these solutions were administered orally to each of 12 mice. A further 12 mice were dosed orally with water. The mice were placed in boxes through which air was drawn and the oxygen content of the air leaving the boxes was measured. The energy expenditure of the mice was calculated for 21 hours after dosing from the volume of air leaving the boxes and its oxygen content following the principles described by J. B. de V. Weir, J. Physiol. […] The food intake of the mice was measured over this same period of 21 hours. The results are expressed as a percentage of the mean food intake or rate of energy expenditure of the mice dosed with water.

Rat hearts = test: Cardiac activity: rat hearts perfused by the Langendorff procedure
Protocol: Rat hearts were perfused by the Langendorff procedure.
Hearts were dissected free within 30 seconds of death and reverse perfused via the aorta and coronary vessels with Krebs-Ringer bicarbonate solution (pH 7.4, 37° C.) gassed with 95% oxygen: 5% carbon dioxide at a flow rate between 8-12 cm^3 /minute. Responses were observed after injection of drug dissolved in isotonic saline into the perfusion media.
Results are expressed as a percentage of the maximum response due to salbutamol.

Female CFLP mice [2] = test: Hypoglycaemic activity: blood glucose of fasted mice after subcutaneous glucose; assay type: in vivo; settings: Mus musculus, read-out: REDUCTION IN AREA UNDER BLOOD GLUCOSE CURVE (%); for inhibition in vivo at 1 µmol/kg: 1.0 μ mol/kg oral
Protocol: Female CFLP mice, weighing approximately 25 g, were fasted for 24 hours prior to the study. The compounds under study were administered orally as an aqueous solution to each of 8 mice. 30 minutes later a blood sample ([…]) was obtained from the tail for the analysis of blood glucose. Immediately after taking this blood sample, glucose (1 g/kg body weight) was administered subcutaneously to each mouse. 8 mice were given water as a control. Blood samples were then obtained from each mouse at 30 minute intervals for 120 minutes.
Compounds that produced a significant (P<0.05) reduction on blood glucose, compared with control mice given water, at any time interval, were considered active. The area under the blood glucose curve over the 2 hour period after the administration of the glucose was calculated for each compound and compared with the value for control animals.

[3] = system: Platelet aggregation (response to collagen); test: Platelet aggregation inhibition activity: response to intravenous collagen in mice; assay type: in vivo; settings: two hours before collagen 400 μg/kg i.v.
Protocol: Male CFLP mice (ca 20 g, n=8) were dosed orally with compound or vehicle (controls) after an overnight fast. Two hours later each mouse received an intravenous dose of collagen (400 μg/kg, pH 6-6.6). Exactly 30 sec. after injection of collagen, each mouse was placed in a chamber of CO2 until respiration ceased. […] Each concentration was expressed as a percent of that obtained in a tail blood sample taken immediately before injection of collagen.

[4] = 0-3h, read-out: MEAN ENERGY EXPENDITURE (%) 0-3h
[5] = 0-21h, read-out: MEAN ENERGY EXPENDITURE (%) 0-21h
[6] = over 21 hours, read-out: MEAN FOOD INTAKE (%)
[7] = 30 μg added to perfusate, percentage of the maximum response due to salbutamol, read-out: HEART RATE
[8] = 30 μg added to perfusate, percentage of the maximum response due to salbutamol, read-out: HEART TENSION
[9] = 2 hour period after glucose, vs control mice given water
[10] = 2.5 μ mol/kg oral, 2 hour period after glucose, vs control mice given water

SMILES: CC(Cc1ccc(OC(C)(C)CO)cc1)NCC(O)c1cccc(C(F)(F)F)c1 (centres unmarked) [Example 7, N-[2-(4-(1,1-Dimethyl-2-hydroxyethoxy)phenyl)-1-methylethyl]-2-hydroxy-2-(3-trifluoromethylphenyl)-ethanamine]
- response vs control in vivo at 24.9 mg/kg (Female CFLP mice [1]; [4]): 145%
- response vs control in vivo at 24.9 mg/kg (Female CFLP mice [1]; [5]): 118%
- response vs control in vivo at 24.9 mg/kg (Female CFLP mice [1]; [6]): 116%
- Emax (Rat hearts; [7]): 46%
- Emax (Rat hearts; [8]): 29%
- inhibition in vivo at 2.5 µmol/kg (Female CFLP mice [2]; po, 2 h): 45%

SMILES: CC(=O)Oc1ccccc1C(=O)O [Aspirin, reference compound]
- % INHIBITION OF RESPONSE TO COLLAGEN ([3]; 600 μ mol/kg po): 47%

SMILES: COc1ccc(C(O)CNC(C)Cc2ccc(OCCO)cc2)cc1F (centres unmarked) [Example 8, N-[2-(4-(2-Hydroxyethoxy)phenyl)-1-methylethyl]-2-hydroxy-2-(3-fluoro-4-methoxyphenyl)-ethanamine]
- response vs control in vivo at 20.2 mg/kg (Female CFLP mice [1]; [4]): 138%
- response vs control in vivo at 20.2 mg/kg (Female CFLP mice [1]; [5]): 96%
- response vs control in vivo at 20.2 mg/kg (Female CFLP mice [1]; [6]): 86%
- Emax (Rat hearts; [7]): 13%
- Emax (Rat hearts; [8]): 13%
- inhibition in vivo at 12.5 µmol/kg (Female CFLP mice [2]; 12.5 μ mol/kg oral, 2 hour period after glucose, vs control mice given water): 21%

SMILES: CC(C)(C)NCC(O)c1ccc(O)c(CO)c1 (centres unmarked) [Salbutamol, reference compound]
- Emax (Rat hearts; salbutamol maximum response (reference), dose not stated, read-out: HEART RATE): 100%
- Emax (Rat hearts; salbutamol maximum response (reference), dose not stated, read-out: HEART TENSION): 100%

SMILES: Cc1cc(CC(C)NCC(O)c2cccc(C(F)(F)F)c2)ccc1OCCO (centres unmarked) [Example 11, N-[2-{4-(2-Hydroxyethoxy)-3-methylphenyl}-1-methylethyl]-2-hydroxy-2-(3-trifluoromethylphenyl)ethanamine]
- response vs control in vivo at 22.1 mg/kg (Female CFLP mice [1]; [4]): 136%
- response vs control in vivo at 22.1 mg/kg (Female CFLP mice [1]; [5]): 113%
- response vs control in vivo at 22.1 mg/kg (Female CFLP mice [1]; [6]): 115%
- inhibition in vivo at 1 µmol/kg (Female CFLP mice [2]; [9]): 31%

SMILES: CC(Cc1ccc(OCCO)cc1)NCC(O)c1cccc(C(F)(F)F)c1 (centres unmarked) [Example 3, N-[2-(4-(2-Hydroxyethoxy)-phenyl)-1-methylethyl]-2-hydroxy-2-(3-trifluoromethylphenyl)ethanamine]
- response vs control in vivo at 20 mg/kg (Female CFLP mice [1]; [4]): 178%
- response vs control in vivo at 20 mg/kg (Female CFLP mice [1]; [5]): 134%
- response vs control in vivo at 20 mg/kg (Female CFLP mice [1]; [6]): 82%
- Emax (Rat hearts; [7]): 17%
- Emax (Rat hearts; [8]): 50%
- inhibition in vivo at 2.5 µmol/kg (Female CFLP mice [2]; [10]): 52%
- % INHIBITION OF RESPONSE TO COLLAGEN ([3]; 1 μ mol/kg po): 47%

SMILES: CC(C)(CCc1ccc(OCCO)cc1)NCC(O)c1ccccc1 (centres unmarked) [Example 9, N-[3-[4-(2-Hydroxyethoxy)phenyl]-1,1-dimethylpropyl]-2-hydroxy-2-phenylethanamine]
- response vs control in vivo at 19.1 mg/kg (Female CFLP mice [1]; [4]): 102%
- response vs control in vivo at 19.1 mg/kg (Female CFLP mice [1]; [5]): 98%
- response vs control in vivo at 19.1 mg/kg (Female CFLP mice [1]; [6]): 91%
- inhibition in vivo at 50 µmol/kg (Female CFLP mice [2]; 50.0 μ mol/kg oral, 2 hour period after glucose, vs control mice given water): 55%

SMILES: CC(Cc1ccc(OCCCCCCCCCCCO)cc1)NCC(O)c1cccc(C(F)(F)F)c1 (centres unmarked) [Example 6, N-[2-(4-(11-Hydroxyundecyloxy)phenyl)1-methylethyl]-2-hydroxy-2-(3-trifluoromethylphenyl)-ethanamine]
- response vs control in vivo at 23.3 mg/kg (Female CFLP mice [1]; [4]): 132%
- response vs control in vivo at 23.3 mg/kg (Female CFLP mice [1]; [5]): 101%
- response vs control in vivo at 23.3 mg/kg (Female CFLP mice [1]; [6]): 99%
- Emax (Rat hearts; [7]): 0%
- Emax (Rat hearts; [8]): 36%
- inhibition in vivo at 2.5 µmol/kg (Female CFLP mice [2]; [10]): 24%

SMILES: C[C@H](Cc1ccc(OCCCCO)cc1)NC[C@H](O)c1cccc(C(F)(F)F)c1 [Example 13, N-[2-{4-(4-Hydroxybutoxy)phenyl}-1-(R)-1-methylethyl]-2-(R)-2-hydroxy-2-(3-trifluoromethylphenyl)ethanamine]
- response vs control in vivo at 5.7 mg/kg (Female CFLP mice [1]; [4]): 134%
- response vs control in vivo at 5.7 mg/kg (Female CFLP mice [1]; [5]): 116%
- response vs control in vivo at 5.7 mg/kg (Female CFLP mice [1]; [6]): 93%
- Emax (Rat hearts; [7]): 17%
- Emax (Rat hearts; [8]): 47%
- inhibition in vivo at 1 µmol/kg (Female CFLP mice [2]; [9]): 37%

SMILES: CC(Cc1ccc(OCCCCO)cc1)NCC(O)c1cccc(C(F)(F)F)c1 (centres unmarked) [Example 2, N-[2-(4-(4-hydroxybutoxy)phenyl)-1-methylethyl]-2-hydroxy-2-(3-trifluoromethylphenyl)ethanamine]
- response vs control in vivo at 22.9 mg/kg (Female CFLP mice [1]; [4]): 168%
- response vs control in vivo at 22.9 mg/kg (Female CFLP mice [1]; [5]): 135%
- response vs control in vivo at 22.9 mg/kg (Female CFLP mice [1]; [6]): 89%
- Emax (Rat hearts; [8]): 22%
- Emax (Rat hearts; read-out: HEART RATE): 0%
- inhibition in vivo at 2.4 µmol/kg (Female CFLP mice [2]; 2.4 μ mol/kg oral, 2 hour period after glucose, vs control mice given water): 57%
- % INHIBITION OF RESPONSE TO COLLAGEN ([3]; 1 μ mol/kg po): 26%

SMILES: CC(CCc1ccc(OCCO)cc1)NCC(O)c1cccc(Cl)c1 (centres unmarked) [Example 10, N-[3-(4-(2-Hydroxyethoxy)phenyl)-1-methylpropyl]-2-hydroxy-2-(3-chlorophenyl)ethanamine]
- response vs control in vivo at 20.3 mg/kg (Female CFLP mice [1]; [4]): 159%
- response vs control in vivo at 20.3 mg/kg (Female CFLP mice [1]; [5]): 114%
- response vs control in vivo at 20.3 mg/kg (Female CFLP mice [1]; [6]): 88%
- inhibition in vivo at 2.5 µmol/kg (Female CFLP mice [2]; [10]): 23%
